For one experiment, the target named is Coagulation factor X (Homo sapiens, UniProt P00742). In words: Inhibitory constant against human coagulation factor Xa (fXa).
The target in another experiment is T1, Serine protease 1 (Bos taurus, UniProt P00760).
T1 sequence (P00760 whole entry): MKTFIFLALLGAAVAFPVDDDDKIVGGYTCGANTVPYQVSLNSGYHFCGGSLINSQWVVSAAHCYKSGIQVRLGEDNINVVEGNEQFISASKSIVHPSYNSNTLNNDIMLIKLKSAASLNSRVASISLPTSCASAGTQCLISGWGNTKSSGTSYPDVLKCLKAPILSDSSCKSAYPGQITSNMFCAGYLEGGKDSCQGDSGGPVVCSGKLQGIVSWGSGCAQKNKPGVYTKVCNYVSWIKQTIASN
In words: Inhibitory constant against bovine trypsin for general specificity against serine proteases.

Another experiment concerns the target Prothrombin (Homo sapiens, UniProt P00734). Nature of the experiment: Inhibitory constant against human coagulation factor II (thrombin) for selectivity within coagulation cascade.

Structures are written as SMILES.

A word on the Ki: it is the equilibrium dissociation constant of an inhibitor or competing ligand from its target. A high value points to lower affinity.

Chain of Coagulation factor X (P00742 41-179 limits assumed): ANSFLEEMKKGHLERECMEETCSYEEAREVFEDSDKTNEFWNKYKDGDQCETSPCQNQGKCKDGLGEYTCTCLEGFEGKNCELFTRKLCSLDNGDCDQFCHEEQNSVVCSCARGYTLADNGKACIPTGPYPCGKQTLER
Chain of Coagulation factor X (P00742 235-488 limits assumed): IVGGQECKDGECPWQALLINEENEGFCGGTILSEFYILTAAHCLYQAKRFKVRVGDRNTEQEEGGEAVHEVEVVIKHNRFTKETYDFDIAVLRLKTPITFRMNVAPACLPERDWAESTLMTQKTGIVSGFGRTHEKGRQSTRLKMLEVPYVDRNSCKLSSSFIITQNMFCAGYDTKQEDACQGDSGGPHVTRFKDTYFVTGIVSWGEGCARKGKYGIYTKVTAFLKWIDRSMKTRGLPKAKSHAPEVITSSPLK

On to `Cc1c(F)c(Oc2cccc(NC(N)=O)c2)nc(Oc2cccc(C(=N)N)c2)c1F`, for which the Ki on Coagulation factor X is 4000 nM; on Serine protease 1 it was above 5000 nM; on Prothrombin, above 5000 nM.
As to `Cc1c(F)c(Oc2cccc(C(=N)N)c2)nc(Oc2cccc(C(=O)N3CCCC3)c2)c1F`, the Ki at Coagulation factor X was 220 nM; on Serine protease 1, 2800 nM; at Prothrombin, above 5000 nM.
For `N=C(N)c1ccc(O)c(Oc2cc(C(=O)O)cc(Oc3cccc(NCCN)c3)n2)c1` the same measures were 78 nM, 350 nM and 3400 nM.
In the case of `COc1cccc(Oc2nc(Oc3cccc(C(=N)N)c3)c(F)c(C)c2F)c1`, the values for the Ki on Coagulation factor X and at Prothrombin were 1350 nM and 1800 nM, respectively.
For `CC(=O)c1cccc(Oc2nc(Oc3cccc(C(=N)N)c3)c(F)c(C)c2F)c1` the same measures were 1400 nM and above 5000 nM.
Take `Cc1c(F)c(Oc2cccc(Nc3ccccc3)c2)nc(Oc2cccc(C(=N)N)c2)c1F`: the Ki at Coagulation factor X is 1800 nM; at Serine protease 1, above 5000 nM; at Prothrombin, 3800 nM.
On Coagulation factor X, `COc1ccc(C(=N)N)cc1Oc1nc(Oc2cccc(N(C)C)c2)c(F)c(C)c1F` came in with an inhibition constant (Ki) of 1400 nM.
On Coagulation factor X, `Cc1c(F)c(Oc2cccc(C(=N)N)c2)nc(Oc2cccc(C(=O)N3CCN(C)CC3)c2)c1F` returned a Ki above 5000 nM.
In the case of `Cc1c(F)c(Oc2cccc(C(=O)N(C)C)c2)nc(Oc2cc(C(=N)N)ccc2O)c1F`, at Coagulation factor X, the affinity, expressed as Ki, was 1.8 nM.
With `Cc1c(F)c(Oc2cccc(C(=N)N)c2)nc(Oc2cccc(C(O)C(=O)N(C)C)c2)c1F` (stereo not given), the Ki on Coagulation factor X is 2200 nM; at Serine protease 1, 3300 nM; at Prothrombin, above 5000 nM.
For `CN(C)c1cccc(Oc2cc(C(=O)O)cc(Oc3cc(C(=N)N)ccc3O)n2)c1` the same measures were 12 nM, 750 nM and 120 nM.
As to `Cc1c(F)c(Oc2cccc(OC(C)C)c2)nc(Oc2cccc(C(=N)N)c2)c1F`, the inhibitory constant (Ki) at Coagulation factor X worked out at 620 nM; on Serine protease 1, 2900 nM; on Prothrombin, 5300 nM.
With `CC(=O)Nc1cccc(Oc2nc(Oc3cccc(C(=N)N)c3)c(F)c(C)c2F)c1`, the Ki at Coagulation factor X was determined as 5800 nM.
As for `Cc1c(Oc2nc(Oc3cccc(C(=N)N)c3)c(F)c(C)c2F)cccc1N(C)C`, the figures for the inhibition constant (Ki) at Coagulation factor X, on Serine protease 1 and at Prothrombin were 320 nM, 5000 nM and 950 nM, respectively.
The corresponding values for `Cc1c(F)c(Oc2cccc(CCC(=O)N(C)C)c2)nc(Oc2cccc(C(=N)N)c2)c1F` are 1300 nM, 4900 nM and above 5000 nM.
On to `CN(C)C(=O)c1cccc(Oc2cc(C(=O)O)cc(Oc3cc(C(=N)N)ccc3O)n2)c1`, for which the inhibitory constant (Ki) on Coagulation factor X turned out to be 3.1 nM; at Serine protease 1, 150 nM; on Prothrombin it was 490 nM.
The corresponding values for `COc1cc(Oc2nc(Oc3cccc(C(=N)N)c3)c(F)c(C)c2F)cc(C(=O)N(C)C)c1` are 140 nM, 750 nM and above 5000 nM.
Turning to `CCNc1cccc(Oc2nc(Oc3cccc(C(=N)N)c3)c(F)c(C)c2F)c1`, the values for the Ki on Coagulation factor X, at Serine protease 1 and at Prothrombin were 530 nM, 2700 nM and above 5000 nM, respectively.
In the case of `COc1c(Oc2nc(Oc3cccc(C(=N)N)c3)c(F)c(C)c2F)cccc1C(=O)N(C)C`, the Ki on Coagulation factor X came to 2400 nM.
With `Cc1c(F)c(Oc2cccc(CC(=O)O)c2)nc(Oc2cccc(C(=N)N)c2)c1F`, the Ki on Coagulation factor X, on Serine protease 1 and at Prothrombin was above 5000 nM each time.
`CCN(CC)C(=O)c1cccc(Oc2nc(Oc3cccc(C(=N)N)c3)c(F)c(C)c2F)c1` showed a Ki at Coagulation factor X of 690 nM.
As to `Cc1c(F)c(Oc2cccc(N)c2)nc(Oc2cccc(C(=N)N)c2)c1F`, the Ki at Coagulation factor X was 3300 nM; at Serine protease 1, above 5000 nM; on Prothrombin, above 5000 nM.
`Cc1c(F)c(Oc2cccc(C(=N)N)c2)nc(Oc2cccc(C(O)C(N)=O)c2)c1F` (stereo not given) returned a Ki on Coagulation factor X of 370 nM.
`CCOC(=O)c1cccc(Oc2nc(Oc3cccc(C(=N)N)c3)c(F)c(C)c2F)c1`: the figures for the Ki on Coagulation factor X, at Serine protease 1 and at Prothrombin were 5200 nM, above 5000 nM and above 5000 nM, respectively.
Turning to `COc1ccc(N(C)C)cc1Oc1nc(Oc2cccc(C(=N)N)c2)c(F)c(C)c1F`, the results for the Ki on Coagulation factor X, on Serine protease 1 and at Prothrombin were above 5000 nM, above 5000 nM and 2200 nM, respectively.
Turning to `Cc1c(F)c(Oc2cccc(C(=N)N)c2)nc(Oc2cc(C(=O)N(C)C)cc(O)c2O)c1F`, the inhibition constant Ki was above 5000 nM on Coagulation factor X, 3400 nM at Serine protease 1 and above 5000 nM on Prothrombin.
As to `Cc1c(F)c(Oc2cccc(CC(N)=O)c2)nc(Oc2cccc(C(=N)N)c2)c1F`, the results for the Ki at Coagulation factor X, on Serine protease 1 and at Prothrombin were 280 nM, above 5000 nM and above 5000 nM, respectively.
`Cc1c(F)c(Oc2cccc(C(=N)N)c2)nc(Oc2cccc([N+](=O)[O-])c2)c1F`: the Ki was 2500 nM on Coagulation factor X, above 5000 nM at Serine protease 1 and above 5000 nM at Prothrombin.
Regarding `CCN(CC)c1cccc(Oc2nc(Oc3cccc(C(=N)N)c3)c(F)c(C)c2F)c1`, the Ki on Coagulation factor X was determined as 400 nM; at Serine protease 1, 2100 nM; on Prothrombin, 730 nM.
With `CNC(=O)c1cccc(Oc2nc(Oc3cccc(C(=N)N)c3)c(F)c(C)c2F)c1`, the affinity on Coagulation factor X, expressed as Ki, was 1200 nM.
Consider `Cc1c(F)c(Oc2cccc(C(=N)N)c2)nc(Oc2cccc(C(F)(F)F)c2)c1F`, for which the Ki on Coagulation factor X was 1600 nM; at Prothrombin it was above 5000 nM.
Take `COc1ccc(C(=N)N)cc1Oc1nc(Oc2cccc(C(=O)N(C)C)c2)c(F)c(C)c1F`: the Ki at Coagulation factor X was determined as 720 nM. This lies in the sub-micromolar range.
For `COc1cc(C(=N)N)cc(Oc2nc(Oc3cccc(C(=O)N(C)C)c3)c(F)c(C)c2F)c1OC`, the Ki at Coagulation factor X was 180 nM; at Serine protease 1, above 5000 nM; at Prothrombin, above 5000 nM.
Take `Cc1c(F)c(Oc2cccc(C(=N)N)c2)nc(Oc2cccc(C(=O)Nc3ccccc3)c2)c1F`: the Ki on Coagulation factor X and on Prothrombin was above 5000 nM each time.
In turn, `Cc1c(F)c(Oc2cccc(F)c2)nc(Oc2cccc(C(=N)N)c2)c1F` came in with an inhibition constant (Ki) at Coagulation factor X of 3200 nM.
Turning to `COc1ccc(Oc2nc(Oc3cccc(C(=N)N)c3)c(F)c(C)c2F)cc1C(=O)N(C)C`, the Ki is 1400 nM at Coagulation factor X, 450 nM at Serine protease 1 and 3000 nM on Prothrombin.
As for `Cc1c(F)c(Oc2cccc(C(=N)N)c2)nc(Oc2cccc(C(=O)N3CCCCC3)c2)c1F`, the results for the Ki at Coagulation factor X, on Serine protease 1 and on Prothrombin were 820 nM, 3000 nM and above 5000 nM, respectively.
For `COc1ccc(C(=O)N(C)C)cc1Oc1nc(Oc2cccc(C(=N)N)c2)c(F)c(C)c1F` the same measures were above 5000 nM, 2100 nM and above 5000 nM.
Take `COc1cc(Oc2nc(Oc3cccc(C(=O)N(C)C)c3)c(F)c(C)c2F)c(O)c(C(=N)N)c1`: the Ki on Coagulation factor X, at Serine protease 1 and on Prothrombin was above 5000 nM each time.
Regarding `Cc1c(F)c(Oc2cccc(C(=N)N)c2)nc(Oc2cccc([S+]([O-])N(C)C)c2)c1F` (stereo not given), the Ki was 720 nM on Coagulation factor X, 2400 nM on Serine protease 1 and above 5000 nM on Prothrombin.
As to `Cc1c(F)c(Oc2cccc(OC(F)(F)F)c2)nc(Oc2cccc(C(=N)N)c2)c1F`, the Ki is 1800 nM on Coagulation factor X, above 5000 nM at Serine protease 1 and above 5000 nM on Prothrombin.
Turning to `Cc1c(F)c(Oc2cccc(C(=N)N)c2)nc(Oc2cccc(-n3ccnc3)c2)c1F`, the Ki at Coagulation factor X was 125 nM; on Serine protease 1, 4800 nM; at Prothrombin, above 5000 nM.
On to `CC1(C)CNC(c2cccc(Oc3cc(C(=O)O)cc(Oc4cc(C(=N)N)ccc4O)n3)c2)=N1`, for which the Ki at Coagulation factor X is 810 nM; at Serine protease 1 it was 1400 nM; on Prothrombin it was above 5000 nM.
The corresponding values for `Cc1c(F)c(Oc2cccc(N(C)C)c2)nc(Oc2cc(C(=N)N)ccc2N)c1F` are 64 nM, 400 nM and 300 nM.
The corresponding values for `Cc1c(F)c(Oc2cccc(N(C)C)c2)nc(Oc2cc(C(=N)N)ccc2NS(C)(=O)=O)c1F` are 5500 nM, above 5000 nM and above 5000 nM.
For `Cc1ccc(N(C)C)cc1Oc1nc(Oc2cccc(C(=N)N)c2)c(F)c(C)c1F` the same measures were above 5000 nM, above 5000 nM and above 5000 nM.
Turning to `Cc1c(F)c(Oc2cccc(O)c2)nc(Oc2cccc(C(=N)N)c2)c1F`, the Ki on Coagulation factor X was 5000 nM.
On to `COc1cc(C(=O)N(C)C)cc(Oc2nc(Oc3cccc(C(=N)N)c3)c(F)c(C)c2F)c1OC`, for which the Ki at Coagulation factor X is above 5000 nM.
`Cn1ccnc1-c1cccc(Oc2cc(C(=O)O)cc(Oc3cc(C(=N)N)ccc3O)n2)c1` returned a Ki at Serine protease 1 of 650 nM. This lies in the sub-micromolar range.
The compound `Cc1ccc(C(=O)N(C)C)cc1Oc1nc(Oc2cccc(C(=N)N)c2)c(F)c(C)c1F` yielded a Ki on Coagulation factor X above 5000 nM.
Still for that read-out and setting: the same measure for `Cc1c(F)c(Oc2cccc(CO)c2)nc(Oc2cccc(C(=N)N)c2)c1F`: 1300 nM.
As to `COc1ccc(C(=N)N)c(OC)c1Oc1nc(Oc2cccc(N(C)C)c2)c(F)c(C)c1F`, the inhibition constant Ki at Coagulation factor X was above 5000 nM.
As for `Cc1c(F)c(Oc2cccc(CCC(N)=O)c2)nc(Oc2cccc(C(=N)N)c2)c1F`, the Ki is 700 nM on Coagulation factor X and above 5000 nM at Serine protease 1.
With `Cc1c(F)c(Oc2cccc(Cl)c2)nc(Oc2cccc(C(=N)N)c2)c1F`, the Ki was 1700 nM at Coagulation factor X and above 5000 nM at Prothrombin.
`COc1cc(Oc2nc(Oc3cccc(C(=O)N(C)C)c3)c(F)c(C)c2F)cc(C(=N)N)c1` came in with an inhibition constant (Ki) on Coagulation factor X of 2700 nM.
On to `Cc1c(F)c(Oc2cccc(C(=N)N)c2)nc(Oc2cccc(C(=O)N(C)C)c2O)c1F`, for which the inhibition constant Ki at Coagulation factor X worked out at 4500 nM.
The compound `Cc1c(F)c(Oc2cccc(C(=N)N)c2)nc(Oc2ccc(O)c(C(=O)N(C)C)c2)c1F` displayed a Ki at Coagulation factor X of 2000 nM.
The same measure, in the same setting: under `Cc1ccc(C(=N)N)cc1Oc1nc(Oc2cccc(N(C)C)c2)c(F)c(C)c1F` stands 1200 nM.
On the same count and under the same terms, under `Cc1c(F)c(Oc2cccc(C(=N)N)c2)nc(Oc2cccc(C(=O)N(C)Cc3ccccc3)c2)c1F` stands 2400 nM; under `Cc1c(F)c(Oc2cccc(C(=O)N(C)C)c2)nc(Oc2cc(C(=N)N)ccc2NS(=O)(=O)C(F)(F)F)c1F`, above 5000 nM.
